Where a SMILES comes first, the peptide text is derived from it. [ ]: non-standard residue; d: D form. Phe(4-Cl) = N[CH](Cc1ccc(Cl)cc1)C(=O)O; 3Pal = N[CH](Cc1cccnc1)C(=O)O
Molecular target: T1, ATX (Homo sapiens, UniProt Q13822)
T1 construct: conditioned serum-free medium (CCM) from MDA-MB-435 cells as the source of ATX; endogenous in cells; host or cells: MDA-MB-435 cells (about 10x concentrated conditioned serum-free medium)
Assay: ATX inhibition assay (FS-3 substrate)
Format: biochemical
Conditions: for % Response: preliminary screen, FS-3 hydrolysis at one hour, normalized to vehicle control, mean±S.D., same values given at 10 μM in Table 5; for IC50: Calculated IC50 data for the 30 active compounds, FS-3 substrate
Procedure, shortened: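 Conditioned serum-free medium from MDA-MB-435 cells served as the ATX source. FS-3 hydrolysis was followed by fluorescence (ex 485/em 528 nm) at 37 °C, read every minute, in Tris pH 8.0 buffer with Ca2+, Mg2+ and 30 μM fatty-acid-free BSA. Readings were blank-subtracted without medium and normalized to vehicle.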

Row | Compound | % Response | IC50
1 | COc1cc(-c2ccc(N=Nc3c(S(=O)(=O)O)cc4cc(S(=O)(=O)O)c(N=Nc5ccc([N+](=O)[O-])cc5)c(N)c4c3O)c(OC)c2)ccc1N=Nc1ccc(N)cc1C.[Na+] [compound 79737] | 62 ± 2.8% | –
2 | Nc1ccc(N=Nc2ccc(-c3ccc(N=Nc4c(S(=O)(=O)[O-])cc5cc(S(=O)(=O)[O-])c(N=Nc6cccc([N+](=O)[O-])c6)c(N)c5c4O)cc3)cc2)c2cc(S(=O)(=O)[O-])ccc12.[Na+].[Na+].[Na+] [compound 79742] | 36 ± 2.5% | 7.04 µM
3 | Nc1ccc(N=Nc2ccc(-c3ccc(N=Nc4c(S(=O)(=O)[O-])cc5cc(S(=O)(=O)[O-])c(N=Nc6ccc([N+](=O)[O-])cc6)c(N)c5c4O)cc3)cc2)c2cc(S(=O)(=O)[O-])ccc12.[Na+].[Na+].[Na+] [compound 79743] | 39 ± 2.7% | 8.33 µM
4 | Nc1ccc2cc(S(=O)(=O)[O-])c(N=Nc3ccc(-c4ccc(N=Nc5c(S(=O)(=O)[O-])cc6cc(S(=O)(=O)[O-])c(N=Nc7cccc([N+](=O)[O-])c7)c(N)c6c5O)cc4)cc3)c(O)c2c1.[Na+].[Na+].[Na+] [compound 79744] | 35 ± 2.9% | 11.5 µM
5 | Cc1ccccc1N=C(N)Nc1ccccc1C.Nc1c(N=Nc2ccc([N+](=O)[O-])cc2)c(S(=O)(=O)O)cc2cc(S(=O)(=O)O)c(N=Nc3ccc(Sc4ccc(N=Nc5ccc(O)cc5)cc4)cc3)c(O)c12 [compound 80902] | 73 ± 4.5% | –
6 | Cc1c(N)cc(S(=O)(=O)O)c(N=Nc2ccc(-c3ccc(N=Nc4c(S(=O)(=O)O)cc5cc(S(=O)(=O)O)c(N=Nc6cccc([N+](=O)[O-])c6)c(N)c5c4O)cc3)cc2)c1N.[Na+] [compound 80903] | 32 ± 2.6% | 5.88 µM
7 | CCCCCCCCCCCCCCCCOc1ccc(S(=O)(=O)N/N=c2/sc3ccc(S(=O)(=O)O)cc3n2C)cc1C(=O)O [compound 270069] | 97 ± 2.4% | –
8 | COc1nc(Nc2ccc(/C=C/c3ccc(Nc4nc(OC)nc(N(CCO)CCO)n4)cc3S(=O)(=O)[O-])c(S(=O)(=O)[O-])c2)nc(N(CCO)CCO)n1.[Na+].[Na+] [compound 306423] | 94 ± 3.6% | –
9 | CC(=O)NC(Cc1ccc(Cl)cc1)C(=O)NC(Cc1ccc(Cl)cc1)C(=O)NC(Cc1cccnc1)C(=O)NC(CO)C(=O)NC(Cc1ccc(O)cc1)C(=O)NC(CCCN=C(N)N)C(=O)NC(CC(C)C)C(=O)NC(CCCN=C(N)N)C(=O)N1CCCC1C(=O)NC(C)C(=O)O (centres unmarked) [compound 373963] (Ac-[Phe(4-Cl)][Phe(4-Cl)][3Pal]SYRLRPA-OH; configuration not given here) | 96 ± 2.5% | –

Other lines, results leading:

Row | % Response | IC50 | Compound
10 | 62 ± 2.5% | – | O=C(/C=C\c1ccc(NCc2ccc(C(=O)O)cc2)cc1)CCl [compound 106024]
11 | 95 ± 4.3% | – | O=C(COc1ccc(Cl)cc1C(=O)O)NCc1cccc(NC(=O)Nc2ccc(S(=O)(=O)F)cc2)c1 [compound 212086]
12 | 96 ± 3.7% | – | O=C(/C=C/c1ccc(O)c(O)c1)NCC(=O)NC(Cc1ccccc1)C(=O)O (centres unmarked) [compound 332542]
13 | 24 ± 2.9% | 7.96 µM | O=C(O)c1ccc(C(=O)NCCCN(CCCCN(CCCNC(=O)c2ccc(C(=O)O)c(O)c2O)C(=O)c2ccc(C(=O)O)c(O)c2O)C(=O)c2ccc(C(=O)O)c(O)c2O)c(O)c1O.[Na+] [compound 338310]
14 | 43 ± 2.8% | 2.5 µM | CC(C)(C)OC(=O)NC(CC(Cc1ccccc1)C(=O)O)C(=O)NC(CC(Cc1ccccc1)C(=O)O)C(=O)NC(CC(Cc1ccccc1)C(=O)O)C(=O)NCC(=O)Oc1ccc([N+](=O)[O-])cc1 (centres unmarked) [compound 341348]

Reference: patent publication US8343934B2, “Diverse lead compound autotaxin inhibitors” (University of Memphis, priority 2009, dated 2013)
